# Measured values taken from patent publication US20180272034A1, “USE OF CSA COMPOUNDS TO PREVENT MICROBIAL BUILD-UP OR FOULING OF MEDICAL IMPLANTS” (BRIGHAM YOUNG UNIVERSITY, priority 2017, published 2018).
# Legend:
# Non-fermenters = assay: Broth microdilution MIC, HABP/VABP clinical isolates; format: cell-based, A. baumannii species complex, P. aeruginosa, S. maltophilia; conditions: Non-fermenters (22)
# Description: CSA-131 was tested in vitro against a set of clinical isolates representing bacterial species commonly associated with hospital-acquired bacterial pneumonia (HABP) or ventilator-associated bacterial pneumonia (VABP). Antimicrobial susceptibility testing for 74 clinical isolates was performed. Broth microdilution using frozen-form MIC panels consisted of three media types: cation-adjusted Mueller-Hinton broth (CA-HMB), CA-HMB supplemented with 2.5-5% lysed horse blood for S. pneumoniae and Haemophilus test media (HTM) for Haemophilus spp.
# Candida auris isolates = assay: Antifungal MIC, CLSI M27-A3; format: cell-based
# Description: The antifungal effectiveness of CSA-131 was tested against 100 Candida auris isolates. The C. auris isolates were from all over the world and covered known C. auris clades. The selection included isolated known to have elevated MIC values against fluconazole, the echinocandins, and/or amphotericin B.
# Testing was performed according to the standards of the Clinical and Laboratory Standards Institute reference methodology M27-A3 (as of 2017). CSA-131 was dissolved in DMSO and diluted as described in M27-A3 to give a final DMSO concentration of <1%. Dilution plates were stored at −70° C. until used and were used within one week of being produced. All results were read visually after 24 hours of incubation at the lowest drug concentration at which there was a 50% decrease in growth by visual inspection. Quality control isolates C. parapsilosis ATCC 22019 and C. krusei ATCC 6258 were included on each day of testing although there are no standard QC values for these isolates against this compound. The MIC values for ATCC 22019 and ATCC 6258 remained within a tight range of 1-2 dilutions over the course of the study.
# [1] = 100 C. auris isolates, 50% decrease in growth, 24 hours
# [2] = fluconazole Resistant isolates, 69
# [3] = fluconazole Susceptible isolates, 30
# [4] = isolates with elevated echinocandin MICs, 7
smiles,measurement,setting,value
CCCCCCCCCCCCNCCC[C@@H](C)[C@H]1CC[C@H]2[C@@H]3[C@H](OCCCN)C[C@@H]4C[C@H](OCCCN)CC[C@]4(C)[C@H]3C[C@H](OCCCN)[C@]12C.Cl.Cl.Cl.Cl [CSA-131],MIC50,Non-fermenters,4 µg/mL
same,MIC90,Non-fermenters,4 µg/mL
same,No. of isolates at MIC 2 μg/ml,Non-fermenters,9
same,No. of isolates at MIC 4 μg/ml,Non-fermenters,12
same,No. of isolates at MIC 8 μg/ml,Non-fermenters,1
same,cumulative % inhibited at 2 μg/ml,Non-fermenters,40.9%
same,cumulative % inhibited at 4 μg/ml,Non-fermenters,95.5%
same,cumulative % inhibited at 8 μg/ml,Non-fermenters,100%
same,No. of Isolates at MIC 0.016,Candida auris isolates; 100 C. auris isolates,0
same,No. of Isolates at MIC 0.03,Candida auris isolates; 100 C. auris isolates,0
same,No. of Isolates at MIC 0.0625,Candida auris isolates; 100 C. auris isolates,0
same,No. of Isolates at MIC 0.125,Candida auris isolates; 100 C. auris isolates,0
same,No. of Isolates at MIC 0.25,Candida auris isolates; 100 C. auris isolates,0
same,No. of Isolates at MIC 0.5,Candida auris isolates; 100 C. auris isolates,39
same,No. of Isolates at MIC 1,Candida auris isolates; 100 C. auris isolates,61
same,No. of Isolates at MIC 2,Candida auris isolates; 100 C. auris isolates,0
same,No. of Isolates at MIC <0.016,Candida auris isolates; 100 C. auris isolates,0
same,No. of Isolates at MIC >2,Candida auris isolates; 100 C. auris isolates,0
same,MIC50,Candida auris isolates; [1],1 µg/mL
same,MIC90,Candida auris isolates; [1],1 µg/mL
same,MIC Mode,Candida auris isolates; [1],1 µg/mL
same,MIC Range,"Candida auris isolates; 100 C. auris isolates, 50% decrease in growth, 24 hours, in µg/mL",0.5-1
same,activity against C. auris collection,"Candida auris isolates; 100 isolates, 4 clades",showed activity against all C. auris
same,MIC50,"Candida auris isolates; Clade 1, 47 isolates",1 µg/mL
same,MIC90,"Candida auris isolates; Clade 1, 47 isolates",1 µg/mL
same,MIC Mode,"Candida auris isolates; Clade 1, 47 isolates",1 µg/mL
same,MIC Range,"Candida auris isolates; Clade 1, 47 isolates",0.5 to 1 µg/mL
same,MIC50,"Candida auris isolates; Clade 2, 11 isolates",1 µg/mL
same,MIC90,"Candida auris isolates; Clade 2, 11 isolates",1 µg/mL
same,MIC Mode,"Candida auris isolates; Clade 2, 11 isolates",1 µg/mL
same,MIC Range,"Candida auris isolates; Clade 2, 11 isolates",0.5 to 1 µg/mL
same,MIC50,"Candida auris isolates; Clade 3, 39 isolates",1 µg/mL
same,MIC90,"Candida auris isolates; Clade 3, 39 isolates",1 µg/mL
same,MIC Mode,"Candida auris isolates; Clade 3, 39 isolates",1 µg/mL
same,MIC Range,"Candida auris isolates; Clade 3, 39 isolates",0.5 to 1 µg/mL
same,MIC50,"Candida auris isolates; Clade 4, 3 isolates",0.5 µg/mL
same,MIC90,"Candida auris isolates; Clade 4, 3 isolates",1 µg/mL
same,MIC Mode,"Candida auris isolates; Clade 4, 3 isolates",0.5 µg/mL
same,MIC Range,"Candida auris isolates; Clade 4, 3 isolates",0.5 to 1 µg/mL
same,MIC50,Candida auris isolates; [2],1 µg/mL
same,MIC90,Candida auris isolates; [2],1 µg/mL
same,MIC Mode,Candida auris isolates; [2],1 µg/mL
same,MIC Range,Candida auris isolates; [2],0.5 to 1 µg/mL
same,MIC50,Candida auris isolates; [3],0.5 µg/mL
same,MIC90,Candida auris isolates; [3],1 µg/mL
same,MIC Range,Candida auris isolates; [3],0.5 to 1 µg/mL
same,MIC50,Candida auris isolates; [4],1 µg/mL
same,MIC90,Candida auris isolates; [4],1 µg/mL
same,MIC Mode,Candida auris isolates; [4],1 µg/mL
same,MIC Range,"Candida auris isolates; isolates with elevated echinocandin MICs, 7, in µg/mL",0.5-1
